According to patent US20260102472A1, “SEMAGLUTIDE IN MEDICAL THERAPY” (Novo Nordisk A/S, priority 2023, published 2026):

Tests used:
[1] = tested on: human subjects with obesity-related heart failure with preserved ejection fraction; assay: Randomised, double-blind, placebo-controlled clinical trial of semaglutide in obesity-related HFpEF (Example 1); assay type: in vivo; details: for Time to first HF event from randomisation leading to either hospitalisation or an urgent visit, Hazard ratio: Semaglutide 2.4 mg/placebo; for Observed KCCQ-CSS mean change from baseline: 2.4 mg once weekly subcutaneously
From the text: The Kansas City Cardiomyopathy Questionnaire (KCCQ) is a disease-specific health status instrument composed of 23 items that quantify the domains of physical limitation, symptoms, self-efficacy, social limitation, and health-related quality of life limitation from heart failure (available via cvoutcomes.org). The questions of the KCCQ are as published in the appendix of Green et al., JACC 2000; 35 (5): 1245-55:
The Kansas City Cardiomyopathy Questionnaire clinical summary score (KCCQ-CSS) is used for interpretation of the KCCQ and scores range from 0 to 100 where higher scores indicate better function. KCCQ-CSS is calculated as the mean of the available summary scores Physical Limitation Score and Total Symptom Score from the KCCQ. […] “Total Symptom Score” is calculated as the mean of the available summary scores Symptom Frequency Score and Symptom Burden Score. “Symptom Frequency Score” is calculated, if answer to at least two of Questions 3, 5, 7 and 9 are not missing, as 100*(mean of S3, S5, S7 and S9 answered), where S3=[(Question 3)−1]/4, S5=[(Question 5)−1]/6, S7=[(Question 7)−1]/6, and S9=[(Question 9)−1]/4; answers to Question 3 are scored as follows: Every morning=1, 3 or more times a week but not every day=2, 1-2 times a week=3, Less than once a week=4, Never over the past 2 weeks=5; answers to Questions 5 and 7 are scored as follows: All of the time=1, Several times a day=2, At least once a day=3, 3 or more times a week but not every day=4, 1-2 times a week=5, Less than once a week=6, or Never over the past 2 weeks=7; and answers to Question 9 are scored as follows: Every night=1, 3 or more times a week but not every day=2, 1-2 times a week=3, Less than once a week=4, or Never over the past 2 weeks=5. “Symptom Burden Score” is calculated, if answer to at least one of Questions 4, 6 and 8 is not missing, as 100*[(mean of Questions 4, 6 and 8 answered)−1]/4 where answers are scored as follows: Extremely bothersome=1, Quite a bit bothersome=2, Moderately bothersome=3, Slightly bothersome=4, Not at all bothersome=5, or I've had no swelling/fatigue/shortness of breath=5. The term “mean of questions answered” as used herein refers to that for a scale with n in questions where the subject must answer m to score the scale, but the subject answers only n-i, where n-i>=m, then the mean of those questions is calculated as (sum of answers to those n-i questions)/(n-i).
The six minute walk test (6MWT) is a determination of the distance a subject is able to walk over a period of six minutes where the subject traverses, at its own pace and resting as needed, back and forth along a marked walkway of 20 meters with the goal of walking as far as possible without running. The distance obtained from 6MWT is referred to as the six minute walk distance (6MWD). The 6MWT is a direct and timed measure of walking ability, which is technically simple and reproducible.
Heart failure exists in different degrees of severity. The most commonly used classification system of heart failure is the New York Heart Association Functional Classification (also referred to as “NYHA”). NYHA categorises subjects in one of four classes I-IV (Table A), based on their degree of limitation during physical activity, and optionally an additional subgroup A-D based on objective assessments, for further details see The Criteria Committee of the New York Heart Association. Nomenclature and Criteria for Diagnosis of Diseases of the Heart and Great Vessels. 9th ed. Boston, Mass: Little, Brown & Co; 1994:253-256.
A randomised, double-blind, international multicentre, placebo-controlled clinical trial with semaglutide was carried out with 529 human subjects with obesity-related heart failure with preserved ejection fraction. Key inclusion criteria were body mass index (BMI) of at least 30 kg/m^2, NYHA Class II-IV, and LVEF of at least 45% at time of screening for the clinical trial. […]

[2] = tested on: hospitalisation for heart failure; details: 0.5 mg or 1.0 mg subcutaneous once weekly, compared to placebo; cited from earlier work
[3] = pair-wise comparisons vs. placebo, 2.4 mg
[4] = week 52, 2.4 mg once weekly vs. placebo
[5] = week 52, 2.4 mg once weekly vs. placebo, listed as semaglutide
[6] = week 52, 2.4 mg once weekly, ANCOVA estimate

## N-epsilon26-[2-(2-{2-[2-(2-{2-[(S)-4-Carboxy-4-(17-carboxyheptadecanoyl-amino) butyrylamino]ethoxy}ethoxy) acetylamino]ethoxy}ethoxy) acetyl] [Aib8,Arg34] GLP-1-(7-37) [Semaglutide]
[1]; HFpEF and obesity, no data given
  Inflammation: reduced inflammation
[1]
  Time to first HF event from randomisation leading to either hospitalisation or an urgent visit, Hazard ratio: 0.08
[1]; listed as semaglutide
  Time to first HF event from randomisation leading to either hospitalisation or an urgent visit, Hazard ratio: risk of experiencing a heart failure event was less
[1]; baseline to 52 weeks
  Patients improved or with no change in NYHA class compared with placebo: more patients treated with semaglutide improved or observed no change in NYHA class
[1]; hierarchical composite endpoint
  More wins on semaglutide as compared to placebo: 72%
[1]; [3]
  Hierarchical composite endpoint, Loss: All-cause death: 1.1%
  Hierarchical composite endpoint, Loss: Change in 6MWD ≥30 meters difference: 3.7%
  Hierarchical composite endpoint, Loss: Change in KCCQ-CSS ≥5 points difference: 7.0%
  Hierarchical composite endpoint, Loss: Change in KCCQ-CSS ≥10 points difference: 5.6%
  Hierarchical composite endpoint, Loss: Change in KCCQ-CSS ≥15 points difference: 17.5%
  Hierarchical composite endpoint, Loss: Number of HF events: 0.0%
  Hierarchical composite endpoint, Loss: Time-to-first HF event: 0.0%
  Hierarchical composite endpoint, Loss: Total: 34.9%
  Hierarchical composite endpoint, Proportion of ties: Proportion of ties: 5.1%.
  Hierarchical composite endpoint, Wins: All-cause death: 1.5%
  Hierarchical composite endpoint, Wins: Change in 6MWD ≥30 meters difference: 6.3%
  Hierarchical composite endpoint, Wins: Change in KCCQ-CSS ≥5 points difference: 8.2%
  Hierarchical composite endpoint, Wins: Change in KCCQ-CSS ≥10 points difference: 7.2%
  Hierarchical composite endpoint, Wins: Change in KCCQ-CSS ≥15 points difference: 33.7%
  Hierarchical composite endpoint, Wins: Number of HF events: 3.3%
  Hierarchical composite endpoint, Wins: Time-to-first HF event: 0.0%
  Hierarchical composite endpoint, Wins: Total: 60.1%
[1]; week 0, 2.4 mg once weekly
  Observed body weight (%) mean change from baseline: 0%
  Observed six minutes walk distance mean change from baseline: 0 meters
[1]; week 0
  Observed KCCQ-CSS mean change from baseline: 0
[1]; week 4, dose escalation to 2.4 mg once weekly
  Observed body weight (%) mean change from baseline: −2.1%
[1]; week 8, dose escalation to 2.4 mg once weekly
  Observed body weight (%) mean change from baseline: −3.2%
[1]; week 12, dose escalation to 2.4 mg once weekly
  Observed body weight (%) mean change from baseline: −5.0%
[1]; week 16, dose escalation to 2.4 mg once weekly
  Observed body weight (%) mean change from baseline: −6.6%
[1]; week 20, 2.4 mg once weekly
  Observed body weight (%) mean change from baseline: −7.8%
  Observed six minutes walk distance mean change from baseline: 14.3 meters
[1]; week 20
  Observed KCCQ-CSS mean change from baseline: 11.0
[1]; week 28, 2.4 mg once weekly
  Observed body weight (%) mean change from baseline: −10.2%
[1]; week 36, 2.4 mg once weekly
  Observed body weight (%) mean change from baseline: −12.1%
[1]; week 36
  Observed KCCQ-CSS mean change from baseline: 15.0
[1]; week 44, 2.4 mg once weekly
  Observed body weight (%) mean change from baseline: −12.9%
[1]; week 52, 2.4 mg once weekly
  NYHA class from baseline to week 52: Improvement: 36.4%
  NYHA class from baseline to week 52: No change: 61.7%
  NYHA class from baseline to week 52: Worsening: 2.0%
  Observed body weight (%) mean change from baseline: −13.9%
  Observed proportion improving ≥5 points from baseline in KCCQ-CSS: 75%
  Observed proportion improving ≥10 points from baseline in KCCQ-CSS: 63%
  Observed six minutes walk distance mean change from baseline: 23.5 meters
[1]; week 52
  Observed KCCQ-CSS mean change from baseline: 16.8
[1]; [4]
  Body weight (%) change from baseline to week 52, Treatment difference vs. placebo: −10.7%
  Improvement of ≥5 points in KCCQ-CSS, Treatment Odds ratio vs. placebo: 1.88
  Improvement of ≥10 points in KCCQ-CSS, Treatment Odds ratio vs. placebo: 2.10
  KCCQ-CSS change from baseline to week 52, Treatment difference vs. placebo: 7.8 score
  Six minutes walk distance change from baseline to week 52, Treatment difference vs. placebo: 20.3 meters
[1]; [5]
  Body weight (%) change from baseline to week 52, Treatment difference vs. placebo: significantly larger body weight loss
  KCCQ-CSS change from baseline to week 52, Treatment difference vs. placebo: significantly larger improvement in KCCQ-CSS
  Six minutes walk distance change from baseline to week 52, Treatment difference vs. placebo: significantly larger improvement in six minutes walk distance
[1]; [6]
  Body weight (%) change from baseline to week 52, Estimate: −13.3%
  KCCQ-CSS change from baseline to week 52, Estimate: 16.6 score
  Six minutes walk distance change from baseline to week 52, Estimate: 21.5 meters
[2]
  Hospitalisation for heart failure, hazard ratio (95% confidence interval): 1.11 (0.77−1.61)
